Assay results reported in paper PMC12622451, “NADPH Oxidase Inhibition Promotes Brain Resilience by Attenuating Tauopathy and Neuroinflammation in Alzheimer's Disease” (Advanced Science, 2025).

Key:
human Nox1 [1] = biological target: T1, human Nox1 (Homo sapiens, UniProt Q9Y5S8)
T1 sequence (Q9Y5S8 1-564): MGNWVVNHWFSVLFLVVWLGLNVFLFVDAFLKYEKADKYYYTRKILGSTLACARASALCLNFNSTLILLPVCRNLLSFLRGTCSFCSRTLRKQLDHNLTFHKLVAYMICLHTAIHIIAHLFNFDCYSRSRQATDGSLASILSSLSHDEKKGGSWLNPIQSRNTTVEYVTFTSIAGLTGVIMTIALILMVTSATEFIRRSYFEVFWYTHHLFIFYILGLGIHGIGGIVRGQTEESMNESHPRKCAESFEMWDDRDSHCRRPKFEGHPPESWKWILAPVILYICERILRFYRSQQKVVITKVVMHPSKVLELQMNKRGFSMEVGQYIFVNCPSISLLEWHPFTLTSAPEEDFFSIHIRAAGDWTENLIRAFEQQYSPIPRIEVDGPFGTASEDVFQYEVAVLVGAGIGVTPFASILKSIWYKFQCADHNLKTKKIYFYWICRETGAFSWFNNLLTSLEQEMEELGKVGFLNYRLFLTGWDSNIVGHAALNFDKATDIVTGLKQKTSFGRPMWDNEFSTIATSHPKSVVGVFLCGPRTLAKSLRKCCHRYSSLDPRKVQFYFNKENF

human Nox4 [2] = biological target: T2, human Nox4 (Homo sapiens, UniProt Q9NPH5); assay: lucigenin chemiluminescence with Drosophila membranes expressing human Nox4; assay type: cell-based
T2 sequence (Q9NPH5 1-578): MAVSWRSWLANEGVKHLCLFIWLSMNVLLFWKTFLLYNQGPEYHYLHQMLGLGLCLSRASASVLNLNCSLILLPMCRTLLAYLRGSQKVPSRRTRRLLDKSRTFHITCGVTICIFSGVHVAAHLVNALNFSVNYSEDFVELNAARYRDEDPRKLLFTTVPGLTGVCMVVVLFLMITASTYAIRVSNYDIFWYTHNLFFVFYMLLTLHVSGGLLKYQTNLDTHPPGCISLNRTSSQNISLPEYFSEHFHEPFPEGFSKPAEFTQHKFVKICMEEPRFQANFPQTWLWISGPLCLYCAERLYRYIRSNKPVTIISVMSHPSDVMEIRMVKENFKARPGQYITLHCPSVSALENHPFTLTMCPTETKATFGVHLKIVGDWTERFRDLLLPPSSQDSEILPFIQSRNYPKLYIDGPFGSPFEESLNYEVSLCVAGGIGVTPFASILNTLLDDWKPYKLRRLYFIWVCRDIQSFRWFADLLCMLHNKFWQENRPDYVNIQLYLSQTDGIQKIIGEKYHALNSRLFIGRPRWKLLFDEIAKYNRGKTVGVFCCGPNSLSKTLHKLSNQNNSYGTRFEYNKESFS

human Nox2 [3] = biological target: T3, human Nox2 (Homo sapiens, UniProt P04839); assay: lucigenin chemiluminescence with Drosophila membranes expressing human Nox2; assay type: cell-based
T3 construct: gene CYBB
T3 sequence (P04839 2-570): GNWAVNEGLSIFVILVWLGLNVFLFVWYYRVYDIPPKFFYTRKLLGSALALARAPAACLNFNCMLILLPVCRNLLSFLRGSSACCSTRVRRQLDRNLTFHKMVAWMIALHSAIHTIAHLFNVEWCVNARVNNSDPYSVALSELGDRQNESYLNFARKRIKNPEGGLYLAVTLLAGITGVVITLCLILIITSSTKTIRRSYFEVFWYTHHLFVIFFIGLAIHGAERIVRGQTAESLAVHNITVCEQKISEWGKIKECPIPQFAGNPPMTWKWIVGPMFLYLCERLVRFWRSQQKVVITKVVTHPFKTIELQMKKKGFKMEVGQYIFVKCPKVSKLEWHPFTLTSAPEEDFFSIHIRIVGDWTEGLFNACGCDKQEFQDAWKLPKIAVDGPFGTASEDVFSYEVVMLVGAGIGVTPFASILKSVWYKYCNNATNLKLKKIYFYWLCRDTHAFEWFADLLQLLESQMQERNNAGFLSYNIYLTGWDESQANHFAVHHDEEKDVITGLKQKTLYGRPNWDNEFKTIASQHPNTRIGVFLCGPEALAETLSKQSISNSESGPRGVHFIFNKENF

human Duox2 = human Duox2 (Homo sapiens, UniProt Q9NRD8); assay: ROS chemiluminescence with Drosophila membranes expressing human Duox2; assay type: biochemical
human Duox2, sequence (Q9NRD8 26-1548): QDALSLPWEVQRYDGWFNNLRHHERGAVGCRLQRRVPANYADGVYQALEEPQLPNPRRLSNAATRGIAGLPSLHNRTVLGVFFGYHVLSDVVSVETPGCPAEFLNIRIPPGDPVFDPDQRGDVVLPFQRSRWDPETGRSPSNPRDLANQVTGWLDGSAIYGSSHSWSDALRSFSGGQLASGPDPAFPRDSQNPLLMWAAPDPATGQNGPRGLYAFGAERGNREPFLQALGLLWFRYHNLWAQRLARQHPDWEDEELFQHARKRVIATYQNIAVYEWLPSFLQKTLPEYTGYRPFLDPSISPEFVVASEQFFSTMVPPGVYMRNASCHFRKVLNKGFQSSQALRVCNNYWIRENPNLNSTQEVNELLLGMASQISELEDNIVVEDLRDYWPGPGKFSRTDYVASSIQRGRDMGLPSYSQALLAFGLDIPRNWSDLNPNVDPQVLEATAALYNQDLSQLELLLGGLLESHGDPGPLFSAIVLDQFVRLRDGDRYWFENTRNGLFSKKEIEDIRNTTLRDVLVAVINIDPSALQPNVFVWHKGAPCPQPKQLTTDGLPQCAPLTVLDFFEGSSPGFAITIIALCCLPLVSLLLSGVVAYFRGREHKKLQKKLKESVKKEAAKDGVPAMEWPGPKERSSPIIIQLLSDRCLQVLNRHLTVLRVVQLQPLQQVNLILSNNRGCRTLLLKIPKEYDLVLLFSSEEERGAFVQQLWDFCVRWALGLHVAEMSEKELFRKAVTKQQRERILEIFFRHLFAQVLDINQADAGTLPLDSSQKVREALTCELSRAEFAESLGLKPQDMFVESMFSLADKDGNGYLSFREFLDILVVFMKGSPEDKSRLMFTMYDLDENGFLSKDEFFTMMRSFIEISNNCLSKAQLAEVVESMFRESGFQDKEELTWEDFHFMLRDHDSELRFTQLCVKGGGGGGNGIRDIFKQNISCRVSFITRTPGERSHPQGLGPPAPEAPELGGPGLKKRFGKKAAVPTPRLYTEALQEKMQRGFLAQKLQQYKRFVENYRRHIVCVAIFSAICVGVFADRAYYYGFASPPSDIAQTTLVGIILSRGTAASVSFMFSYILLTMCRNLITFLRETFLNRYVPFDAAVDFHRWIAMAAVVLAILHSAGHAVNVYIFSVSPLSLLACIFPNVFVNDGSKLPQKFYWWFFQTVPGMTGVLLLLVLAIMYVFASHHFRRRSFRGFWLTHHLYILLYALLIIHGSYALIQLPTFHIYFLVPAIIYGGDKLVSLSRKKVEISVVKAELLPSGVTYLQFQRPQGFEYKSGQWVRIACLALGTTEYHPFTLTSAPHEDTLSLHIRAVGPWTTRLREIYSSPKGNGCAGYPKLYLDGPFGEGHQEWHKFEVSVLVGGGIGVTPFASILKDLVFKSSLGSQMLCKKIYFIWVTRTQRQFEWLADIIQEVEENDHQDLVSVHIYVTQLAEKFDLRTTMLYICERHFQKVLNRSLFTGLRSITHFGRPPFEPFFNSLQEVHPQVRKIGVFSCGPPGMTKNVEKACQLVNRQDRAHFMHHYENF

human Duox1 = human Duox1 (Homo sapiens, UniProt Q9NRD9); assay: ROS chemiluminescence with Drosophila membranes expressing human Duox1; assay type: biochemical
human Duox1, sequence (Q9NRD9 22-1551): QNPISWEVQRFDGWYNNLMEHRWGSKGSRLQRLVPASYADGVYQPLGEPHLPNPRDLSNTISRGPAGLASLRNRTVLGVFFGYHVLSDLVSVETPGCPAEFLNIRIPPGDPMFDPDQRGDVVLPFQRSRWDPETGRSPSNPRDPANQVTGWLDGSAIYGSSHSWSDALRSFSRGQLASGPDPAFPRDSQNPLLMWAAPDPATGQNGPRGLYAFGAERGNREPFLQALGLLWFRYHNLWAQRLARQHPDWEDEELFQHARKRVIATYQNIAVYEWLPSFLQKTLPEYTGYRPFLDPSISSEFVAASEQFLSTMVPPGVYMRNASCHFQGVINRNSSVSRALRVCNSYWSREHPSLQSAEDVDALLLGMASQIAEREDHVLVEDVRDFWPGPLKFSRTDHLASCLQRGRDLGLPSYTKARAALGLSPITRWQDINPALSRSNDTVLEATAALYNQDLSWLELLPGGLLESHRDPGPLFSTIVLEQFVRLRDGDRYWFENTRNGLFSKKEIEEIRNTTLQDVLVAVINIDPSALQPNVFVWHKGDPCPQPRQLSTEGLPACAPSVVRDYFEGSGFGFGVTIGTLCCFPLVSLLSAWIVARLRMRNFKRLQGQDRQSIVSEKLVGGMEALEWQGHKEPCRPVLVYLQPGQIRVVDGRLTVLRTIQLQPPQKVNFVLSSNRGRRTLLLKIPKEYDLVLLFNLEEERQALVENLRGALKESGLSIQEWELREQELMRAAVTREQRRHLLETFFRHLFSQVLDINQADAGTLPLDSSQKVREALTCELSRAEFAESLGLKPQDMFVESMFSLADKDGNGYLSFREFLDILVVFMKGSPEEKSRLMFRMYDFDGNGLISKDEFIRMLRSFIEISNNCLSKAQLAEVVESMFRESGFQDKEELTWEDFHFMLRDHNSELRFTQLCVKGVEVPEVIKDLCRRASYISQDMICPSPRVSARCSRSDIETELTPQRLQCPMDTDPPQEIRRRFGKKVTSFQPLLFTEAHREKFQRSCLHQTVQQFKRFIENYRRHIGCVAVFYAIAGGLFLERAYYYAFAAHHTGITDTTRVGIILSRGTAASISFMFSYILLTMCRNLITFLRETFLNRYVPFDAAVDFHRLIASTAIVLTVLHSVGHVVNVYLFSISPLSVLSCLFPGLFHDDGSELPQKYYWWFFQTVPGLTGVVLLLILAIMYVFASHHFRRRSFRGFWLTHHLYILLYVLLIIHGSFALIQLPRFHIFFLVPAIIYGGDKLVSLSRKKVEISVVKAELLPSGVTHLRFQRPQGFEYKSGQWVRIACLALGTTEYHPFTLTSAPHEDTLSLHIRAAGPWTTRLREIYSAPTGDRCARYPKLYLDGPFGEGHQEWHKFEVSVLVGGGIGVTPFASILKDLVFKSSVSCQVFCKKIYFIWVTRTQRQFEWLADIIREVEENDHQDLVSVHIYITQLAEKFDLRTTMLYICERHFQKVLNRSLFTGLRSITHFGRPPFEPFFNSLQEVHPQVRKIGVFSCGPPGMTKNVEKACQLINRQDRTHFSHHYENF

human Nox2 [4] = biological target: T3, human Nox2; assay: ROS chemiluminescence with Drosophila membranes expressing human Nox2; assay type: biochemical
human Nox4 [5] = biological target: T2, human Nox4; assay: ROS chemiluminescence with Drosophila membranes expressing human Nox4; assay type: biochemical
human Nox1 [6] = biological target: T1, human Nox1; assay: ROS chemiluminescence with Drosophila membranes expressing human Nox1; assay type: biochemical
human Nox5 = biological target: T4, human Nox5 (Homo sapiens, UniProt Q96PH1); assay: ROS chemiluminescence with Drosophila membranes expressing human Nox5; assay type: biochemical
T4 sequence (Q96PH1 1-765): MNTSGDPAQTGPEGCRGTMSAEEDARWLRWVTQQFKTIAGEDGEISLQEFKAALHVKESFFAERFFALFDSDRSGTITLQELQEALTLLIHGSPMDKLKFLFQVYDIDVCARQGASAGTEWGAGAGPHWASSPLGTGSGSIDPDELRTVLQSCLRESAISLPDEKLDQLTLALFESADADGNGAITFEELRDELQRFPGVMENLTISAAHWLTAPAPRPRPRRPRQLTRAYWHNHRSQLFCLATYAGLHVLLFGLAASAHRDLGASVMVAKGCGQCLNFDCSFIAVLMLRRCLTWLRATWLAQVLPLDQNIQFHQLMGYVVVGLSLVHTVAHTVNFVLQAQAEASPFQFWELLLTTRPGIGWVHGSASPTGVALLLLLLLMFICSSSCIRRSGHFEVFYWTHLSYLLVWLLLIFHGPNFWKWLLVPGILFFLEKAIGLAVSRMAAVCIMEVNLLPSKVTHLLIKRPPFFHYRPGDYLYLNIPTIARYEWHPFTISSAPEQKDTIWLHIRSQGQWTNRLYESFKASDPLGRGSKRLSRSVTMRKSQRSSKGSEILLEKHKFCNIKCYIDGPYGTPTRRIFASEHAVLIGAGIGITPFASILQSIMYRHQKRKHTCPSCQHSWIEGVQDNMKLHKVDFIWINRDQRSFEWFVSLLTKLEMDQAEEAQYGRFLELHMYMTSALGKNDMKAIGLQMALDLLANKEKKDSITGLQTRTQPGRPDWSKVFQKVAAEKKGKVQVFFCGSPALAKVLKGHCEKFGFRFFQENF

IC50 (human Duox2) | IC50 (human Duox1) | IC50 (human Nox2 [4]) | IC50 (human Nox4 [5]) | IC50 (human Nox1 [6]) | IC50 (human Nox5) | SMILES | lucigenin chemiluminescence with Drosophila membranes expressing human Nox1 (human Nox1 [1]) | lucigenin chemiluminescence with Drosophila membranes expressing human Nox4 (human Nox4 [2]) | lucigenin chemiluminescence with Drosophila membranes expressing human Nox2 (human Nox2 [3])
 |  |  |  |  |  | c1ccc2c(c1)[I+]c1ccccc1-2 [DPI, Diphenyleneiodonium chloride] | DPI exhibited low Nox inhibitory activity, while GSK2795039 showed very minimal inhibition | DPI exhibited low Nox inhibitory activity, while GSK2795039 showed very minimal inhibition | DPI exhibited low Nox inhibitory activity, while GSK2795039 showed very minimal inhibition
200 to 300 nM | 200 to 300 nM | 200 to 300 nM | 200 to 300 nM | 200 to 300 nM | 200 to 300 nM | O=C(Nc1nnc(-c2ccccc2)o1)c1ccc(F)c(C(F)(F)F)c1 [CRB-2131, 4‐fluoro‐N‐(5‐phenyl‐1,3,4‐oxadiazol‐2‐yl)‐3‐(trifluoromethyl) benzamide] |  |  | 
